Measured values taken from patent US20030119903A1, “Use of trimebutine for treating pain” (priority 1999, published 2003).
Like-named read-outs stand apart in the source and are kept apart here.

Experiments:
[1] = test system: sodium currents in DRG neurons; assay: whole cell patch clamp, sodium currents in DRG neurons; type: cell-based, rat
[2] = test system: formalin induced pain; assay: formalin-induced pain; details: for ED50: Rattus norvegicus, sc, read-out: ED50, formalin induced pain (licking time)
[3] = test system: veratridine-induced glutamate release; assay: veratridine-induced [3H]-glutamate release from rat spinal cord slices; details: for IC50: read-out: IC50, inhibition of veratridine-induced glutamate release
[4] = test system: streptozocin-induced hyperalgesia; assay: streptozocin-induced diabetic rats, tail immersion test; type: in vivo, rat; details: 30 mg/kg s.c. single dose, 30 min or 60 min before test, 44° C.
From the text: FIG. 9: Effect of TMB in diabetic rats.
Streptozocin is a selective pancreatic β-cell toxin, which has been used to induce experimental diabetes in laboratory animals (Tomlinson K. C. et al., 1992,). The resultant loss of endogenous insulin induced by streptozocin mimics the characteristics of type I, or insulin-dependent, diabetes. Streptozocin-induced diabetes has recently been described as a model of chronic pain in rats. It has been reported that streptozocin administration leads to mechanical, thermal, and chemical hyperalgesia as well as mechanical hypersensitivity (Courteix C. et al., 1993; Calcutt N. A. et al., 1996). The most common symptoms of diabetic neuropathy appear to be spontaneous burning pain and mechanical hypersensitivity in the feet or lower limbs.
Test is carried out with male Sprague Dawley rats (Iffa-Credo) weighing 160-180 grams on arrival. […] Food and water are provided ad libidum.
Animals are intraperitoneally injected with streptozocin 75 mg/kg. Control animals are given vehicle in the same conditions. Diabetes are confirmed once a week after injection by measurement of tail vein blood glucose levels with Boehriger glycemia test. […]
The tail of the rat is immersed in a water bath at 44° C. […] Results are expressed as the mean+/−SEM and analysed by a Student's t test after an analysis of variance (Anova one way).

[5] = test system: unilateral peripheral mononeuropathy; assay: rat mononeuropathy, vocalization threshold to paw pressure; details: for duration of the antinociceptive effect: (S)-Nor-TMB s.c., morphine i.v.
[6] = test system: PGE2-induced hyperalgesia; assay: PGE2-induced hyperalgesia (Randall and Selitto's test)
Method: Test is carried out with Sprague-Dawley male rats (100-120 grams) on arrival. They are housed 5 per cage and acclimated to the conditions of the animal room for 5 days under a 12/12 day/night cycle and a constant room temperature of 22° C. Food and water are provided ad libidum.
A solution of PGE2 (1 mg/ml) is prepared as a stock solution in a 10% (v/v) alcohol in apyrogen sterile saline and stored at 4° C. for 4 days.
A solution of PGE2 (1 μg/ml) is freshly prepared twice daily in sterile saline and 100 μl is injected subplantar into the left paw of rat, twice daily for 4 days. Using this protocol, hyperalgesia is present for at least a week following completion for 4 days of treatment.
Hyperalgesia is measured by the Randall and Selitto's test (Randall and Setillo,1957) using an analgesimeter (Ugo Basile). The analgesimeter is basically a device which exerts a force that increases at constant rate. The force is applied to the animal's paw which is placed on a small plinth under a cone-shaped pusher. The operator depresses a pedal-switch to start the mechanism with exerts the force. The nociceptive threshold is defined as the force at which the rat withdraws its paw. The threshold is determined before and after treatment.
% of antinociceptive activity is calculated as follows: [formula]

[7] = volunteers, tablets of 900 mg trimebutine, oral
[8] = test system: μ-, δ- and κ- opioid receptors; details: rat brain, guinea-pig and canine intestinal receptors; no subtype selectivity; cited from earlier work
[9] = test system: voltage-dependent Kv1.1 and Kv1.2 channels; assay: two-electrode voltage clamp, potassium currents in Xenopus oocytes; details: 10 μM, Kv1.1 and Kv1.2 in Xenopus oocytes
Method: (B) Potassium currents expressed in Xenopus oocytes. Superimposed current traces induced by 400 ms depolarizations at −40 to +20 mV (in 10 mV step from −80 mV).
Two voltage-dependent K^+ channels are considered: the shaker-related Kv1.1 and Kv1.2 channels.
The rat voltage-dependent rKv1.1 and rKv1.2 channels are expressed in Xenopus oocytes. […] The transcriptions are done using the Ambion Megascript (Ambion, USA) and the cRNAs are stored in water at 1 mg/ml. cRNAs injection in Xenopus oocytes is done at 2-4 ng/ml. Defolliculated oocytes are kept in ND96 medium supplemented with 0.1 U/ml gentamicin. The currents are recorded 1-6 days after injection.
A two-electrode voltage clamp amplifier (Geneclamp 500, Axon Instruments) is used to record K^+ currents from Xenopus oocytes. The KCl (3M)-filled electrodes had tip resistance<1 MΩ. The oocytes are continuously superfused with a Ca^2+-free ND96 medium in order to abolish the large Ca^2+-activated Cl^− current present in these cells.

[10] = test system: sodium currents in GH3 cells; assay: sodium currents in GH3 cells; type: cell-based, rat; details: read-out: IC50, sodium current block (summary statement)

Q: With `CCC(COC(=O)c1cc(OC)c(OC)c(OC)c1)(NC)c1ccccc1` (stereo not shown) [Nor-TMB, N-desmethyl trimebutine] as the molecule, how does the “inhibition parameters (IC50, nH) compared with trimebutine” value ([1]; DRG neurons) read?
A: very similar

Q: And the “ED50, formalin induced pain (licking time)” value ([2]; s.c., 30 min before testing)?
A: 17 mg/kg

Q: What about the IC50 ([3]; veratridine 40 μM, rat spinal cord slices) of the same molecule?
A: 8.4 µM

Q: Which IC50 ([3]; Rattus norvegicus) does the source give for `CC[C@@](COC(=O)c1cc(OC)c(OC)c(OC)c1)(NC)c1ccccc1` [(R)-Nor-TMB, (R) N-desmethyl trimebutine] here?
A: 16.3 µM

Q: For `CC[C@](COC(=O)c1cc(OC)c(OC)c(OC)c1)(NC)c1ccccc1` [(S)-Nor-TMB, (S)-N-desmethyl trimebutine], which “reaction time of tail withdrawal from hot water” value [4] is on record?
A: the same as in control (non diabetic) rats

Q: And the IC50 ([3]; Rattus norvegicus)?
A: 6.3 µM

Q: What about the “antinociceptive effect compared with morphine 1 mg/kg i.v.” value ([5]; 3 and 10 mg/kg s.c., amplitude and duration) of the same molecule?
A: superior to that of morphine

Q: What about the “duration of the antinociceptive effect” value [5] of the same molecule?
A: more than 90 min

Q: And the “dose from which the increase of vocalization pressure threshold is present” value ([5]; s.c.)?
A: ≥ 1 mg/kg

Q: What about the “antinociceptive effect, contralateral paw” value ([5]; vocalization threshold, s.c.) of the same molecule?
A: only at the highest dose (10 mg/kg)

Q: And the “antinociceptive effect, nerve-injured paw” value ([5]; vocalization threshold, s.c.)?
A: significant at all the three doses tested

Q: And the “inhibition of PGE2-induced hyperalgesia” value ([6]; 20 mg/kg s.c.)?
A: up to 89%

Q: And the ED50 ([6]; Rattus norvegicus, sc, read-out: ED50, PGE2-induced hyperalgesia)?
A: 7 mg/kg

Q: Which IC50 ([3]; Rattus norvegicus) does the source give for `CCCCN1CCCCC1C(=O)Nc1c(C)cccc1C` (stereo not shown) [bupivacaine] here?
A: 8.2 µM

Q: With `CCC(COC(=O)c1cc(OC)c(OC)c(OC)c1)(c1ccccc1)N(C)C.O=C(O)/C=C\C(=O)O` (racemic) [trimebutine, 2-dimethylamino-2-phenylbutyl 3,4,5-trimethoxybenzoate hydrogen maleate] as the molecule, how does the “time of maximal plasma concentration” value [7] read?
A: 1 h

Q: What about the blocking rate kon [1] of the same molecule?
A: 35-40 10^−3s^−1 μM^−1

Q: What about the unblocking rate koff [1] of the same molecule?
A: 29 10^−3s^−1

Q: What about the “time constant of channel block” value ([1]; 10 μM) of the same molecule?
A: 2.2 s

Q: What about the “τoff, time constant of recovery from block” value ([1]; n=6) of the same molecule?
A: 34 ± 4 s

Q: And the IC50 ([1]; read-out: IC50, best fit to Hill function (FIG. 4D legend))?
A: 0.69 µM

Q: What about the IC50 ([1]; read-out: IC50, sodium current block (dose-response curve, text)) of the same molecule?
A: 1.05 ± 0.09 µM

Q: And the IC50 ([1]; read-out: IC50, sodium current block (summary statement))?
A: < 1 µM

Q: What about the “activity at opioid receptors” value [8] of the same molecule?
A: weak agonist activity

Q: And the “K+ current block” value [9]?
A: 23±6%

Q: What about the ED50 [2] of the same molecule?
A: 231 mg/kg

Q: And the “concentration at which inhibition of glutamate release is seen / significant” value [3]?
A: higher than 60 μM

Q: And the IC50 ([3]; Rattus norvegicus)?
A: > 100 µM

Q: And the IC50 [10]?
A: < 1 µM

Q: For `CC[C@@](COC(=O)c1cc(OC)c(OC)c(OC)c1)(c1ccccc1)N(C)C` [(S)-Trimebutine], which IC50 ([3]; Rattus norvegicus) is on record?
A: 15.2 µM

Q: Which ED50 [2] does the source give for `CN1CC[C@]23c4c5ccc(O)c4O[C@H]2[C@@H](O)C=C[C@H]3[C@H]1C5` [morphine] here?
A: 0.51 mg/kg

Q: What about the “effect on veratridine-induced glutamate release” value ([3]; up to 100 μM) of the same molecule?
A: inactive

Q: And the “duration of the antinociceptive effect” value [5]?
A: less than 60 min

Q: For `CC[C@](COC(=O)c1cc(OC)c(OC)c(OC)c1)(c1ccccc1)N(C)C` [(R)-Trimebutine], which IC50 ([3]; Rattus norvegicus) is on record?
A: > 100 µM

Q: And the “inhibition of PGE2-induced hyperalgesia” value ([6]; 100 mg/kg s.c.)?
A: 57%
